From US9511134B2, “Inducing immune responses to influenza virus using polypeptide and nucleic acid compositions” (priority 2006, dated 2016)
Read-outs that look alike come from different tables or passages of the source. Where no end group is shown, it is not given here.

What was measured:
Assay in all cases: biochemical
Format in all cases: binding
[1] = molecular target: T1, DRB4*0101 (Homo sapiens, UniProt P01903+P13762, G164S)
T1 construct: made in house; host or cells: EBV-transformed homozygous human B cell lines, transfected fibroblasts or single-allele 721.221 transfectants

[2] = molecular target: DRB1*1302 (Homo sapiens, UniProt P01903+P01911, A100E/A169T/K41T/L162R/M171V/P40S/Q125H/Q178H/Q39Y/Q99D/R42S/S66N/T262R/V115G/W38E/Y61H); conditions: read-out: IC50 nM to purified HLA DRB1*1302
DRB1*1302, sequence (P01903 26-254 limits assumed, other chains not shown): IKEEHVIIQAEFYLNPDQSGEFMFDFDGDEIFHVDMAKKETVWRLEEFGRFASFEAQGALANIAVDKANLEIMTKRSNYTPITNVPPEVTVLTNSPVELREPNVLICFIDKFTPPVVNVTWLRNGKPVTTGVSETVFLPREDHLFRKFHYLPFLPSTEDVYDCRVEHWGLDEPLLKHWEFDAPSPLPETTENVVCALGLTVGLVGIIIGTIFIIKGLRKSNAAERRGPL

[3] = molecular target: T2, DRB1*0101 (Homo sapiens, UniProt P01903+P01911, A100R/D57E/F55L/F60I/F76Y/I96L/L162R/M171V/P40L/Q125E/R42F/V115G/Y59C); conditions: IC50 nM to purified HLA DRB1*0101
T2 construct: made in house; host or cells: EBV-transformed homozygous human B cell lines, transfected fibroblasts or single-allele 721.221 transfectants

[4] = molecular target: T3, DRB1*1501 (Homo sapiens, UniProt P01903+P01911); conditions: read-out: IC50 nM to purified HLA DRB1*1501
T3 construct: made in house; host or cells: EBV-transformed homozygous human B cell lines, transfected fibroblasts or single-allele 721.221 transfectants

[5] = molecular target: T4, DRB1*0401 (Homo sapiens, UniProt P01903+P01911, A100K/A169T/F76Y/I96L/K127E/L162R/M171V/N62H/P40V/Q125Y/R42H/S133A/S149N/S66Y/V115G/V209L/W38E); conditions: read-out: IC50 nM to purified HLA DRB1*0401
T4 construct: made in house; host or cells: EBV-transformed homozygous human B cell lines, transfected fibroblasts or single-allele 721.221 transfectants

[6] = molecular target: T5, DRB1*0301 (Homo sapiens, UniProt P01903+P01911, A100K/A102G/A103R/A169T/F55Y/I96L/K41T/L162R/M171V/P40S/Q125H/Q178H/Q39Y/R42S/S66N/T106N/T262R/W38E/Y61H)
T5 construct: made in house; host or cells: EBV-transformed homozygous human B cell lines, transfected fibroblasts or single-allele 721.221 transfectants
T5 sequence (P01903 26-254, other chains not shown): as the sequence (P01903 26-254 limits assumed, other chains not shown) above

[7] = molecular target: DRB1*0404 (Homo sapiens, UniProt P01903+P01911, A100R/A169T/F76Y/I96L/K127E/L162R/M171V/N62H/P40V/Q125Y/R42H/S133A/S149N/S66Y/V209L/W38E); conditions: IC50 nM to purified HLA DRB1*0404
[8] = IC50 nM to purified HLA DRB4*0101

Row | Compound | IC50 [1, 8] [nM] | IC50 [2] [nM] | IC50 [3] [nM] | IC50 [4] [nM] | IC50 [5] [nM] | IC50 [6] [µM] | IC50 ([1]; read-out: IC50 nM to purified HLA DRB4*0101) [nM] | IC50 ([4]; Table 4) [nM] | IC50 [7] [nM]
1 | CC[C@H](C)[C@H](NC(=O)[C@H](CC(C)C)NC(=O)[C@H](Cc1c[nH]c2ccccc12)NC(=O)[C@@H](NC(=O)[C@@H](N)C(C)C)C(C)C)C(=O)N[C@@H](CCCCN)C(=O)N[C@@H](CCCCN)C(=O)N[C@@H](CC(N)=O)C(=O)N[C@@H](CO)C(=O)N[C@H](C(=O)N[C@@H](Cc1ccc(O)cc1)C(=O)N1CCC[C@H]1C(=O)N[C@H](C(=O)N[C@H](C(=O)N[C@@H](CCCCN)C(=O)N[C@@H](CCCNC(=N)N)C(=O)O)[C@@H](C)CC)[C@@H](C)O)[C@@H](C)O [Flu.HA.163] | 1660 | 14 | 464 | 99 |  |  |  |  | 
2 | CC(C)C[C@H](NC(=O)[C@H](C)NC(=O)CNC(=O)[C@H](CCC(N)=O)NC(=O)[C@@H](N)[C@@H](C)O)C(=O)N[C@@H](CC(C)C)C(=O)N[C@@H](CC(N)=O)C(=O)N[C@@H](CC(=O)O)C(=O)N[C@@H](CCCCN)C(=O)N[C@@H](Cc1c[nH]cn1)C(=O)N[C@@H](CO)C(=O)N[C@@H](CC(N)=O)C(=O)NCC(=O)N[C@H](C(=O)N[C@H](C(=O)N[C@@H](CCCCN)C(=O)N[C@@H](CC(=O)O)C(=O)O)C(C)C)[C@@H](C)O [Flu.NA.115] |  | 468 |  | 822 | 19000 | 0.177 |  |  | 
3 | CSCC[C@H](NC(=O)[C@H](CC(C)C)NC(=O)[C@@H](NC(=O)[C@H](CCCNC(=N)N)NC(=O)[C@H](Cc1c[nH]cn1)NC(=O)[C@@H]1CCCN1C(=O)[C@H](CO)NC(=O)[C@H](CCCNC(=N)N)NC(=O)[C@H](CC(=O)O)NC(=O)[C@H](CCCCN)NC(=O)[C@@H](NC(=O)[C@@H](NC(=O)CNC(=O)[C@@H](N)CC(N)=O)[C@@H](C)O)C(C)C)[C@@H](C)O)C(=O)N[C@@H](CO)C(=O)O [Flu.NA.126] | 8880 | 7930 | 581 |  | 17900 |  |  |  | 
4 | CC[C@H](C)[C@H](NC(=O)[C@H](CC(C)C)NC(=O)[C@H](CCCNC(=N)N)NC(=O)CNC(=O)[C@@H](N)CCC(=O)O)C(=O)N[C@@H](CCC(N)=O)C(=O)N[C@@H](CC(N)=O)C(=O)N[C@@H](CO)C(=O)N[C@H](C(=O)N[C@H](C(=O)N[C@H](C(=O)N[C@@H](CCC(=O)O)C(=O)N[C@@H](CCCNC(=N)N)C(=O)N[C@@H](CCSC)C(=O)N[C@H](C(=O)O)C(C)C)[C@@H](C)CC)[C@@H](C)O)[C@@H](C)CC [Flu.NP.56] | 15 | 55 |  |  |  |  |  |  | 
5 | CC[C@H](C)[C@H](NC(=O)[C@H](CO)NC(=O)[C@H](CC(N)=O)NC(=O)[C@@H](N)CCC(N)=O)C(=O)N[C@H](C(=O)N[C@H](C(=O)N[C@@H](CCC(=O)O)C(=O)N[C@@H](CCCNC(=N)N)C(=O)N[C@@H](CCSC)C(=O)N[C@H](C(=O)N[C@@H](CC(C)C)C(=O)N[C@@H](CO)C(=O)N[C@@H](C)C(=O)N[C@@H](Cc1ccccc1)C(=O)N[C@@H](CC(=O)O)C(=O)O)C(C)C)[C@@H](C)CC)[C@@H](C)O [Flu.NP.61] |  |  |  | 1200 | 430 |  | 39 | 1200 | 
6 | CC[C@H](C)[C@H](NC(=O)[C@H](CCCNC(=N)N)NC(=O)[C@H](CCCNC(=N)N)NC(=O)[C@@H](NC(=O)[C@H](CCC(=O)O)NC(=O)[C@H](CCC(=O)O)NC(=O)[C@H](CCCCN)NC(=O)[C@H](CC(=O)O)NC(=O)[C@H](Cc1ccc(O)cc1)NC(=O)[C@H](CC(C)C)NC(=O)[C@@H](NC(=O)[C@H](CC(C)C)NC(=O)[C@H](CCC(=O)O)NC(=O)[C@@H](N)CCCNC(=N)N)[C@@H](C)CC)[C@@H](C)CC)C(=O)N[C@@H](Cc1c[nH]c2ccccc12)C(=O)O [Flu.NP.109] |  |  |  |  |  | 0.059 |  |  | 1800
7 | CSCC[C@H](NC(=O)[C@H](C)NC(=O)[C@H](CCCCN)NC(=O)[C@@H](N)CCC(N)=O)C(=O)N[C@@H](CCSC)C(=O)N[C@@H](CC(=O)O)C(=O)N[C@@H](CCC(N)=O)C(=O)N[C@H](C(=O)N[C@@H](CCCNC(=N)N)C(=O)N[C@@H](CCC(=O)O)C(=O)N[C@@H](CO)C(=O)N[C@@H](CCCNC(=N)N)C(=O)N[C@@H](CC(N)=O)C(=O)N1CCC[C@H]1C(=O)NCC(=O)O)C(C)C [Flu.NP.238] |  |  |  |  |  | 0.45 |  |  | 1830
8 | CC[C@H](C)[C@H](NC(=O)[C@H](C)NC(=O)[C@@H](N)CCC(N)=O)C(=O)N[C@@H](CCSC)C(=O)N[C@@H](CC(=O)O)C(=O)N[C@@H](CCCCN)C(=O)N[C@@H](CC(=O)O)C(=O)N[C@H](C(=O)N[C@H](C(=O)N[C@@H](CC(C)C)C(=O)N[C@@H](CCCCN)C(=O)N[C@@H](C)C(=O)N[C@@H](CC(N)=O)C(=O)N[C@@H](Cc1ccccc1)C(=O)N[C@@H](CO)C(=O)O)[C@@H](C)CC)[C@@H](C)CC [Flu.NS1.124] |  |  |  |  |  |  |  |  | 310
9 | CC[C@H](C)[C@H](NC(=O)[C@H](CO)NC(=O)[C@H](CCC(=O)O)NC(=O)CN)C(=O)N[C@H](C(=O)N[C@H](C(=O)N[C@@H](CCC(=O)O)C(=O)N[C@@H](CC(C)C)C(=O)N[C@@H](CC(=O)O)C(=O)N[C@@H](CC(=O)O)C(=O)N1CCC[C@H]1C(=O)N[C@@H](CC(N)=O)C(=O)N[C@@H](C)C(=O)N[C@@H](CC(C)C)C(=O)N[C@@H](CC(C)C)C(=O)O)C(C)C)[C@@H](C)CC [Flu.PA.61] |  | 59 |  |  |  |  |  |  | 80
10 | CC(C)C[C@H](NC(=O)[C@H](CO)NC(=O)[C@H](CCCNC(=N)N)NC(=O)[C@H](CC(C)C)NC(=O)[C@H](CCC(=O)O)NC(=O)[C@@H]1CCCN1C(=O)[C@H](CCC(=O)O)NC(=O)[C@H](CC(=O)O)NC(=O)[C@H](CO)NC(=O)[C@H](CC(=O)O)NC(=O)[C@H](Cc1ccc(O)cc1)NC(=O)[C@H](CCC(N)=O)NC(=O)[C@H](CCCCN)NC(=O)[C@@H](N)CC(C)C)C(=O)N[C@@H](CO)C(=O)O [Flu.PA.393] |  |  | 17700 |  | 7260 | 0.088 |  |  | 5800
11 | CC[C@H](C)[C@H](NC(=O)[C@H](CCC(=O)O)NC(=O)[C@H](CC(=O)O)NC(=O)[C@H](CC(C)C)NC(=O)[C@H](CCC(=O)O)NC(=O)[C@@H](NC(=O)[C@H](Cc1c[nH]c2ccccc12)NC(=O)[C@@H](NC(=O)[C@@H](N)CO)[C@@H](C)CC)[C@@H](C)CC)C(=O)NCC(=O)N[C@@H](CCC(=O)O)C(=O)N[C@@H](CC(=O)O)C(=O)N[C@H](C(=O)N[C@@H](C)C(=O)N1CCC[C@H]1C(=O)O)C(C)C [Flu.PA.423] |  |  | 13400 |  | 5400 | 0.059 |  |  | 7610
12 | CC[C@H](C)[C@H](NC(=O)[C@H](CCSC)NC(=O)[C@H](CC(N)=O)NC(=O)[C@@H](N)CC(N)=O)C(=O)N[C@@H](CC(N)=O)C(=O)N[C@@H](CC(N)=O)C(=O)N[C@@H](CC(=O)O)C(=O)N[C@@H](CC(C)C)C(=O)NCC(=O)N1CCC[C@H]1C(=O)N[C@@H](C)C(=O)N[C@H](C(=O)N[C@@H](C)C(=O)N[C@@H](CCC(N)=O)C(=O)N[C@@H](CCSC)C(=O)O)[C@@H](C)O [Flu.PB1.535] |  | 477 |  |  | 798 | 0.527 |  |  | 1830
13 | CC[C@H](C)[C@H](NC(=O)[C@H](CC(N)=O)NC(=O)[C@H](Cc1ccc(O)cc1)NC(=O)[C@H](CC(C)C)NC(=O)[C@H](CC(N)=O)NC(=O)[C@@H]1CCCN1C(=O)CNC(=O)CNC(=O)[C@H](CC(=O)O)NC(=O)[C@H](CO)NC(=O)[C@@H](NC(=O)[C@H](CC(C)C)NC(=O)[C@H](CC(C)C)NC(=O)CNC(=O)[C@H](C)N)C(C)C)C(=O)O [Flu.PB1.590] |  | 105 | 8120 |  | 3000 | 0.107 |  |  | 3490
14 | CC[C@H](C)[C@H](NC(=O)[C@H](CCCNC(=N)N)NC(=O)[C@H](CCCCN)NC(=O)[C@H](CC(=O)O)NC(=O)[C@H](C)NC(=O)[C@@H](NC(=O)[C@@H](NC(=O)[C@@H]1CCCN1C(=O)[C@H](Cc1ccc(O)cc1)NC(=O)[C@@H](N)CCCCN)[C@@H](C)CC)[C@@H](C)O)C(=O)N[C@@H](CCSC)C(=O)N[C@@H](CCC(=O)O)C(=O)N[C@@H](CCSC)C(=O)N[C@H](C(=O)N1CCC[C@H]1C(=O)O)[C@@H](C)CC [Flu.PB2.57] |  | 68 |  |  | 9390 | 0.048 |  |  | 2290
15 | CC[C@H](C)[C@H](NC(=O)[C@@H](NC(=O)[C@H](CC(C)C)NC(=O)[C@H](CO)NC(=O)[C@H](CCC(N)=O)NC(=O)[C@H](CC(=O)O)NC(=O)[C@@H](NC(=O)[C@H](CC(=O)O)NC(=O)[C@H](CC(=O)O)NC(=O)[C@H](CC(N)=O)NC(=O)[C@H](CCCNC(=N)N)NC(=O)[C@@H](NC(=O)[C@H](CCC(=O)O)NC(=O)CNC(=O)CN)C(C)C)C(C)C)[C@@H](C)CC)C(=O)O [Flu.PB2.250] |  | 2500 |  |  |  |  |  |  | 458
16 | PVHFRNQVKIRRRVD [Flu.PB2.135] |  | 359 | 2970 |  | 1300 | 0.458 |  |  | 5980
